Laboratory results taken from patent US6458784B1, “Vitronectin receptor antagonists” (priority 1995, dated 2002).
Where two headings read alike, the source gives them in different places.

What was measured:
[1] = biological target: GPIIb-IIIa (fibrinogen receptor, αIIbβ3) (Homo sapiens, UniProt P05106+P08514); test: Competitive binding to GPIIb-IIIa with [3H]-SK&F-107260 (inhibition of RGD-mediated GPIIb-IIIa binding)
Procedure: Ten units of outdated, washed human platelets (obtained from Red Cross) were lyzed by gentle stirring in 3% octylglucoside, 20 mM Tris-HCl, pH 7.4, 140 mM NaCl, 2 mM CaCl2 at 4° C. for 2 h. The lysate was centrifuged at 100,000 g for 1 h. The supernatant obtained was applied to a 5 mL lentil lectin sepharose 4B column (E.Y. Labs) preequilibrated with 20 mM Tris-HCl, pH 7.4, 100 mM NaCl, 2 mM CaCl2, 1% octylglucoside (buffer A). After 2 h incubation, the column was washed with 50 mL cold buffer A. The lectin-retained GPIIb-IIIa was eluted with buffer A containing 10% dextrose. All procedures were performed at 4° C.
A mixture of phosphatidylserine (70%) and phosphatidylcholine (30%) (Avanti Polar Lipids) were dried to the walls of a glass tube under a stream of nitrogen. […] The mixture was resuspended and sonicated in a bath sonicator for 5 min.
The binding assay was performed in a 96-well filtration plate assembly. (Millipore Corporation, Bedford, Mass.) using 0.22 um hydrophilic durapore membranes. The wells were precoated with 0.2 mL of 10 μg/mL polylysine (Sigma Chemical Co., St. Louis, Mo.) at room temperature for 1 h to block nonspecific binding. Various concentrations of unlabeled benzadiazapines were added to the wells in quadruplicate. […] The mixtures were incubated for 1 h at room temperature. […] Bound radioactivity remaining on the filters was counted in 1.5 mL Ready Solve (Beckman Instruments, Fullerton, Calif.) in a Beckman Liquid Scintillation Counter (Model LS6800), with 40% efficiency. […] All data points are the mean of quadruplicate determinations.
Competition binding data were analyzed by a nonlinear least-squares curve fitting procedure.

[2] = biological target: T1, αvβ3 (vitronectin receptor) (Homo sapiens, UniProt P05106+P06756); test: Solid-phase [3H]-SK&F-107260 binding to αvβ3 (inhibition of vitronectin binding); settings: for ratio* (enhanced binding to vitronectin receptor vs fibrinogen receptor = αIIbβ3/αVβ3): selectivity αIIbβ3/αVβ3
T1 construct: Human placenta or human platelet αvβ3 (0.1-0.3 mg/mL) in buffer T; from tissue; host or cells: human placenta or human platelets
Procedure: Inhibition of Vitronectin Binding
0.1-0.2 μg of αvβ3 was added per well. The plates were incubated overnight at 4° C. […] Following incubation the wells were aspirated completely and washed twice with 0.2 mL buffer A.
This solution is then diluted to the required final compound concentration.
The plates were incubated for 1 hr at room temperature. Following incubation the wells were aspirated completely and washed once with 0.2 mL of ice cold buffer A in a well-to-well fashion.

Chain of GPIIb-IIIa (fibrinogen receptor, αIIbβ3) (P08514 32-887 limits assumed): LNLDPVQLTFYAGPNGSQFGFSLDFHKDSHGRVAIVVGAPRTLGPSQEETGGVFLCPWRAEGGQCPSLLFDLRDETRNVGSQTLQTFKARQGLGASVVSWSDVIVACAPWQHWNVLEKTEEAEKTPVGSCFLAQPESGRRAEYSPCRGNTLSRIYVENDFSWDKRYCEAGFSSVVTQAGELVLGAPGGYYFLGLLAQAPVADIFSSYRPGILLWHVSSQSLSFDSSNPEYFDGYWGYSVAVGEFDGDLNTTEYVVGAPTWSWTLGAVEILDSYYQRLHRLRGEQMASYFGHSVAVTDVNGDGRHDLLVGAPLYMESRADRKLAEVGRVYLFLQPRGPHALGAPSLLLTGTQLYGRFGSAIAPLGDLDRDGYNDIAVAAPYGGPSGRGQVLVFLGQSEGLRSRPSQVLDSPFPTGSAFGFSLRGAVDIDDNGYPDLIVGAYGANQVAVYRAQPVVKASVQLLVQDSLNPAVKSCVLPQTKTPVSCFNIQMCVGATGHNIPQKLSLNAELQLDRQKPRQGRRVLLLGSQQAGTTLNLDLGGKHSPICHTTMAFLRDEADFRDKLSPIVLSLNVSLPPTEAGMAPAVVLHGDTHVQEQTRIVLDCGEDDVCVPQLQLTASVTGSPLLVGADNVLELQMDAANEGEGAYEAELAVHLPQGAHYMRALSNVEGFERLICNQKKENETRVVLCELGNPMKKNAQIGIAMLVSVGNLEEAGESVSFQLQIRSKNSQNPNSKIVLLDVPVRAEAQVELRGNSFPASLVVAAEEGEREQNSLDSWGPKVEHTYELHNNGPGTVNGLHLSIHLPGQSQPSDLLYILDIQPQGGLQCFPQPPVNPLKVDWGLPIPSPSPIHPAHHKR
Chain of GPIIb-IIIa (fibrinogen receptor, αIIbβ3) (P08514 891-1039 partner limits assumed): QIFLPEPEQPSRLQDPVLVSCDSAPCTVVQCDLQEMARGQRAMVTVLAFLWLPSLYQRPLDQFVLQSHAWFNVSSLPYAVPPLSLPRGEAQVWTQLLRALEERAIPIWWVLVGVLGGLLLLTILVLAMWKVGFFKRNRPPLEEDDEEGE
Chain of GPIIb-IIIa (fibrinogen receptor, αIIbβ3) (P05106 27-788): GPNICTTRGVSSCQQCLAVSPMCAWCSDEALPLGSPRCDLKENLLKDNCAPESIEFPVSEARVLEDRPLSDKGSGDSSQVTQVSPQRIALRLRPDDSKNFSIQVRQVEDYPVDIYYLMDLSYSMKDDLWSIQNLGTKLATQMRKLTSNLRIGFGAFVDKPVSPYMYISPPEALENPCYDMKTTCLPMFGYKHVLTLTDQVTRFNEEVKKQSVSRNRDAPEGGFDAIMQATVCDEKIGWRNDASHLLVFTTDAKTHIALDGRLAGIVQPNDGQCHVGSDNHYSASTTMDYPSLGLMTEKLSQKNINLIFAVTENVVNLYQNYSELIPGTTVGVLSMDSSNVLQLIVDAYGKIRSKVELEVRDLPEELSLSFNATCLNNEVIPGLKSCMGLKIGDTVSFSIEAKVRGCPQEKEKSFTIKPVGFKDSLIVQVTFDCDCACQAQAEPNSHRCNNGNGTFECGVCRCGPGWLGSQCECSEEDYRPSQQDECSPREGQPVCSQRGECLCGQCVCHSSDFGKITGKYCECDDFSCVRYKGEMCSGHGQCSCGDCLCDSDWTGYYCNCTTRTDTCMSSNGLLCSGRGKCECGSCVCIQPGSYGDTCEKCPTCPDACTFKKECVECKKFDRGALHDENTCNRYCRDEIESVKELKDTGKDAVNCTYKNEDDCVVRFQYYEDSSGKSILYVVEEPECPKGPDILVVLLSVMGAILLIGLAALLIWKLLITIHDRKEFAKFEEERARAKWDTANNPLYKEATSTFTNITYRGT
T1 sequence (P06756 31-889 limits assumed): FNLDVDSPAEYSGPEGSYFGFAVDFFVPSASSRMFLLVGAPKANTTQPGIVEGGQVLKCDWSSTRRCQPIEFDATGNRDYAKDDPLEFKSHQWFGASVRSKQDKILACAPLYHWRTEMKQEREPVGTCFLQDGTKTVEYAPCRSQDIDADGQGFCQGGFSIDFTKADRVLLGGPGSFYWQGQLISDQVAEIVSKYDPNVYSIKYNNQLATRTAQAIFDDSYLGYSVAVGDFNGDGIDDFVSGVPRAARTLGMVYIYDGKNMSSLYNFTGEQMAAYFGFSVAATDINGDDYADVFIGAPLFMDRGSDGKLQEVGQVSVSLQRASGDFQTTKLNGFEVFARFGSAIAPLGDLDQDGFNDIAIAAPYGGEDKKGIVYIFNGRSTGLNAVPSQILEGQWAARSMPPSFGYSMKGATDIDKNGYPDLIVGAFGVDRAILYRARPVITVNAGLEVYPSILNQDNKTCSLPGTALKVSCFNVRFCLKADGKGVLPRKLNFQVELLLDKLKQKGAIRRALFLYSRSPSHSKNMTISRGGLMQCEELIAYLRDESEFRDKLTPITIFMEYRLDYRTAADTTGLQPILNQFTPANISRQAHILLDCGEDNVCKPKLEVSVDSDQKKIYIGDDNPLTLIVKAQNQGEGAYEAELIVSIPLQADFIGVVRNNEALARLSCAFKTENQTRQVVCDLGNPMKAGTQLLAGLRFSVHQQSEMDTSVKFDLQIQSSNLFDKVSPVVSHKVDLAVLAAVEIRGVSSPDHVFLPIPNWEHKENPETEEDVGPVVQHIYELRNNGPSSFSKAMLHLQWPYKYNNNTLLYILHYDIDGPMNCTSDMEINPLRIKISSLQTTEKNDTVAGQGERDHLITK
T1 sequence (P06756 891-1048 partner limits assumed): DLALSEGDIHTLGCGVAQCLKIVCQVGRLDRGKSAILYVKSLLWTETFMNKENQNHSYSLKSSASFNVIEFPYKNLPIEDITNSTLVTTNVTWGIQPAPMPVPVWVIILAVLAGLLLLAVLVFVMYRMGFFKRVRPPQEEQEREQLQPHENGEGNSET
T1 sequence (P05106 27-788): as the sequence (P05106 27-788) above

Compound	Ki [1] [µM]	Ki ([2]; read-out: αVβ3) [µM]	ratio* (enhanced binding to vitronectin receptor vs fibrinogen receptor = αIIbβ3/αVβ3) [2]	Ki ([2]; displacement of 5.0 nM [3H]-SK&F-107260 from human placenta or platelet αvβ3, table does not say whether IC50 or Ki, method derives Ki, read-out: αVβ3) [µM]	Ki [2] [µM]
CN1Cc2cc(NC(=O)[C@@H](N)Cc3ccccc3)ccc2CC(CC(=O)O)C1=O (mixture of isomers) [Example 15, 8-[[2S-amino-3-phenylpropanoyl]amino]-2-methyl-3-oxo-2,3,4,5-tetrahydro-1H-2-benzazepine-4RS-acetic acid]	37.5	3.9	9.6	–	–
Nc1ccc(NC(=O)c2ccc3c(c2)CN(CCc2ccccc2)C(=O)C(CC(=O)O)N3)cn1 (racemic) [Example 3, (±)-7-[[(6-amino-3-pyridinyl)amino]carbonyl]-3-oxo-4-(2-phenylethyl)-2,3,4,5-tetrahydro-1H-1,4-benzodiazepine-2-acetic acid]	110	9.18	12	–	–
CN1Cc2cc(NC(=O)c3ccccn3)ccc2CC(CC(=O)O)C1=O (racemic) [Example 5, (±)-2-methyl-3-oxo-8-[[2-(pyridinyl)carbonyl]amino]-2,3,4,5-tetrahydro-1H-2-benzazepine-4-acetic acid]	> 50	15.3	>3	–	–
CN1Cc2cc(NC(=O)OCc3ccccc3)ccc2CC(CC(=O)O)C1=O (racemic) [Example 6, (±)-8-[(benzyloxycarbonyl)amino]-2-methyl-3-oxo-2,3,4,5-tetrahydro-1H-2-benzazepine-4-acetic acid]	17.5	7.5	2.3	–	–
CN1Cc2cc(C(=O)Nc3cccc(C(N)=O)c3)ccc2NC(CC(=O)O)C1=O (racemic) [Example 8, (±)-7-[[[3-(aminocarbonyl)phenyl]amino]carbonyl]-4-methyl-3-oxo-2,3,4,5-tetrahydro-1H-1,4-benzodiazepine-2-acetic acid]	> 50	12.3	>4	–	–
CN1Cc2cc(C(=O)N3CCN(c4ccccc4)CC3)ccc2NC(CC(=O)O)C1=O (racemic) [Example 9, (±)-4-methyl-3-oxo-7-[1-(4-phenylpiperazinyl)carbonyl]-2,3,4,5-tetrahydro-1H-1,4-benzodiazepine-2-acetic acid]	> 100	–	>11	9.23	–
CN1Cc2cc(C(=O)N3CCNCC3)ccc2NC(CC(=O)O)C1=O (racemic) [Example 10, (±)-4-methyl-3-oxo-7-[(1-piperazinyl)carbonyl]-2,3,4,5-tetrahydro-1H-1,4-benzodiazepine-2-acetic acid]	2.13	1.1	>1.9	–	–
CN1Cc2cc(C(=O)N3CCC(N4CCCCC4)CC3)ccc2NC(CC(=O)O)C1=O (racemic) [Example 11, (±)-4-methyl-3-oxo-7-[1-[4-(1-piperidinyl)piperidinyl]carbonyl]-2,3,4,5-tetrahydro-1H-1,4-benzodiazepine-2-acetic acid]	20.1	1.45	14	–	–
CN1Cc2cc(C(=O)N3CCN(Cc4ccccc4)CC3)ccc2NC(CC(=O)O)C1=O (racemic) [Example 13, (±)-4-methyl-3-oxo-7-[1-[4-(phenylmethyl)piperazinyl]carbonyl]2,3,4,5-tetrahydro-1H-1,4-benzodiazepine-2-acetic acid]	15.4	9.5	1.62	–	–
CN1Cc2cc(C(=O)N3CCN(c4ncccn4)CC3)ccc2NC(CC(=O)O)C1=O (racemic) [Example 14, (±)-4-methyl-3-oxo-7-[1-[4-(2-pyrmidinyl)piperazinyl]carbonyl]-2,3,4,5-tetrahydro-1H-1,4-benzodiazepine-2-acetic acid]	> 50	6.2	>8	–	–
CN(CC(O)c1ccccc1)C(=O)c1ccc2c(c1)CN(C)C(=O)C(CC(=O)O)C2 (racemic) [Example 16, (±)-8-[[[(2-hydroxy-2-phenyl)ethyl]methylamino]carbonyl]-2-methyl-3-oxo-2,3,4,5-tetrahydro-1H-2-benzazepine-4-acetic acid]	28	9.5	2.9	–	–
CN(CCO)C(=O)c1ccc2c(c1)CN(C)C(=O)C(CC(=O)O)N2 (racemic) [Example 17, (±)-7-[[[N-(2-hydroxyethyl)-N-methyl]amino]carbonyl]-4-methyl-3-oxo-2,3,4,5-tetrahydro-1H-1,4-benzodiazepine-2-acetic acid]	> 50	15.2	>3	–	–
CN1Cc2cc(NC(=O)CNc3ccccn3)ccc2CC(CC(=O)O)C1=O (racemic) [Example 18, (±)-8-[[(2-(2-pyridinylamino)acetyl]amino]-2-methyl-3-oxo-2,3,4,5-tetrahydro-1H-2-benzazepine-4-acetic acid]	30	1.3	23	–	–
CN1Cc2cc(NC(=O)CN)ccc2CC(CC(=O)O)C1=O (racemic) [Example 20, (±)-8-[(2-aminoacetyl)amino]-2-methyl-3-oxo-2,3,4,5-tetrahydro-1h-2-benzazepine-4-acetic acid]	45	1.55	29	–	–
CN1Cc2cc(NC(=O)CCN)ccc2CC(CC(=O)O)C1=O (racemic) [Example 21, (+/±)-8-[(3-aminopropanoyl)amino]-2-methyl-3-oxo-2,3,4,5-tetrahydro-1H-2-benzazepine-4-acetic acid]	52	0.85	61	–	–
CN1Cc2cc(C(=O)NCc3cccnc3)ccc2NC(CC(=O)O)C1=O (racemic) [Example 22, (±)-4-methyl-3-oxo-7-[[[(3-pyridinyl)methyl]amino]carbonyl]-2,3,4,5-tetrahydro-1H-1,4-benzodiazepine-2-acetic acid]	27	–	3	–	9.02
